Reference: patent US5786349A, “Method for treating chlamydia infectious diseases by rifamycin derivative” (Kaneka Corporation, priority 1995, dated 1998)
Values after ≈ are worked out from the molar mass of the structure shown. Values joined by “and” are separate entries in the source; they are usually repeats but may differ in a detail not shown here. Identical values can stand only once.

What was measured:
[1] = tested on: Chlamydia pneumoniae AR-39; experiment: In vitro test 3: inhibition of inclusion formation in HeLa 229 cells, about 5 times the inoculum of test 2, C. pneumoniae AR-39; settings: AR39, 72 h, read-out: Minimum inhibitory concentration AR-39
[2] = tested on: Chlamydia pneumoniae TW-183; experiment: In vitro test 3: inhibition of inclusion formation in HeLa 229 cells, about 5 times the inoculum of test 2, C. pneumoniae TW-183; settings: TW183, 72 h, read-out: Minimum inhibitory concentration TW-183
[3] = tested on: Chlamydia pneumoniae AR-39; experiment: Infection-therapy test: mouse pneumonia model; settings: 1 mg/kg/day i.p. for 3 days
[4] = tested on: Chlamydia trachomatis F/UW-6/Cx; experiment: In vitro test 1: inhibition of inclusion formation in HeLa 229 cells (Japan Society of Chemotherapy standard method), C. trachomatis F/UW-6/Cx; settings: rifampicin vs compound 4
[5] = tested on: Chlamydia trachomatis D/UW-3/Cx; experiment: In vitro test 1: inhibition of inclusion formation in HeLa 229 cells (Japan Society of Chemotherapy standard method), C. trachomatis D/UW-3/Cx; settings: rifampicin vs compound 4

Row | MIC [1] [ng/mL] | MIC [2] [ng/mL] | SMILES | further results
1 | 0.63 (≈ 0.649 nM) | 2.5 (≈ 2.57 nM) | COC1C=COC2(C)Oc3c(C)c(O)c4c(=O)c(c5oc6cc(N7CCN(CC8OCCO8)CC7)cc(O)c6nc-5c4c3C2=O)NC(=O)C(C)=CC=CC(C)C(O)C(C)C(O)C(C)C(OC(C)=O)C1C (centres unmarked) | 
2 | 500 (≈ 668 nM) | 250 (≈ 334 nM) | CC[C@H]1OC(=O)[C@H](C)[C@@H](O[C@H]2C[C@@](C)(OC)[C@@H](O)[C@H](C)O2)[C@H](C)[C@@H](O[C@@H]2O[C@H](C)C[C@H](N(C)C)[C@H]2O)[C@](C)(O)C[C@@H](C)CN(C)[C@H](C)[C@@H](O)[C@]1(C)O [Azithromycin, reference compound] | 
3 | 1.25 (≈ 1.41 nM) | 0.63 (≈ 0.711 nM) | COC1C=COC2(C)Oc3c(C)c(O)c4c(=O)c(c5oc6cc(N7CCOCC7)cc(O)c6nc-5c4c3C2=O)NC(=O)C(C)=CC=CC(C)C(O)C(C)C(O)C(C)C(OC(C)=O)C1C (centres unmarked) [Compound 1] | 
4 | 0.16 (≈ 0.178 nM) | 0.63 (≈ 0.701 nM) | COC1C=COC2(C)Oc3c(C)c(O)c4c(=O)c(c5oc6cc(N7CCN(C)CC7)cc(O)c6nc-5c4c3C2=O)NC(=O)C(C)=CC=CC(C)C(O)C(C)C(O)C(C)C(OC(C)=O)C1C (centres unmarked) [Compound 2] | 
5 | 1.25 (≈ 1.35 nM) | 5 (≈ 5.39 nM) | CCCN1CCN(c2cc(O)c3nc4c5c6c7c(C)c(O)c5c(=O)c(c-4oc3c2)NC(=O)C(C)=CC=CC(C)C(O)C(C)C(O)C(C)C(OC(C)=O)C(C)C(OC)C=COC(C)(O7)C6=O)CC1 (centres unmarked) [Compound 3] | 
6 | 2.5 (≈ 2.78 nM) | 1.25 (≈ 1.39 nM) | COC1C=COC2(C)Oc3c(C)c(O)c4c(=O)c(c5oc6cc(N7CCN(CC(C)C)CC7)cc(O)c6nc-5c4c3C2=O)NC(=O)C(C)=CC=CC(C)C(O)C(C)C(O)C(C)C(O)C1C (centres unmarked) [Compound 5] | 
7 |  |  | CO[C@H]1/C=C/O[C@@]2(C)Oc3c(C)c(O)c4c(O)c(c(/C=N/N5CCN(C)CC5)c(O)c4c3C2=O)NC(=O)/C(C)=C\C=C\[C@H](C)[C@H](O)[C@@H](C)[C@@H](O)[C@@H](C)[C@H](OC(C)=O)[C@@H]1C [rifampicin] | MIC as multiple of the concentration for the compound 4 [4]: about 30 times; MIC as multiple of the concentration for the compound 4 [5]: about 30 times

Row | SMILES | MIC [1] [ng/mL] | MIC [2] [ng/mL] | further results
8 | COC1C=COC2(C)Oc3c(C)c(O)c4c(=O)c(c5oc6cc(N7CCN(CC(C)C)CC7)cc(O)c6nc-5c4c3C2=O)NC(=O)C(C)=CC=CC(C)C(O)C(C)C(O)C(C)C(OC(C)=O)C1C (centres unmarked) [Compound 4] | 1.25 (≈ 1.33 nM) | 1.25 (≈ 1.33 nM) | Mice from which Chlamydia was reisolated from the lung/tested mice ([3]; 2 days after infection): 3/3; Mice from which Chlamydia was reisolated from the lung/tested mice ([3]; 7 days after infection (3 days after completion of treatment), 1 mg/kg/day): only one mouse in a group of 5 mice and 1/5; Mice from which Chlamydia was reisolated from the lung/tested mice ([3]; 9 days after infection (5 days after completion of treatment)): 0/5; Mice from which Chlamydia was reisolated from the lung/tested mice ([3]; 14 days after infection (10 days after completion of treatment)): 0/5; Mice from which Chlamydia was reisolated from the lung/tested mice ([3]; 19 days after infection (15 days after completion of treatment)): 0/5; reisolation of organisms ([3]; after the 5th day from completion of treatment): no reisolation of organisms was observed; death of mice ([3]; treatment group): no death of the treatment group of mice was observed
